PMC4792161, “A novel pyrazole derivative protects from ovariectomy-induced osteoporosis through the inhibition of NADPH oxidase” (Scientific Reports, 2016)
Structures can show the parent of a compound that is named as a salt.

Key:
[1] = tested on: OVX-induced osteoporotic ddY mice; experiment: Bone strength (failure load, three-point bending test) in OVX mice; type: in vivo; conditions: oral once daily 28 days; risedronate 2.5 mg/kg
[2] = Pharmacokinetics after IV and oral administration to rats; type: in vivo
Description: Supplementary Table S1. Pharmacokinetic parameters of Ewha-89403 following IV and oral administration at the doses of 1 mg/kg and 10 mg/kg, respectively, to rats (n=4-5) PK Parameters IV Injection Oral Administration
Absolute Bioavailability (BA) = 4.3 %
Supplementary Table S2. Pharmacokinetic parameters of Ewha-18278 following IV and oral administration at the doses of 2 mg/kg and 20 mg/kg, respectively, to rats (n=5-6) […]
Absolute Bioavailability (BA) = 63.8 %

xanthine oxidase = xanthine oxidase (Bos taurus, UniProt P80457); experiment: Xanthine oxidase assay (lucigenin); type: biochemical
Description: Xanthine oxidase activity was measured by lucigenin. Reaction mixtures contained 0.1 mU xanthine oxidase, 0.25 mM Xanthine, and 0.4 mM lucigenin with the indicated inhibitor (0–20 μM). Luminescence measured over 30 min at 37 °C with luminometor (DTX800, Beckman coulter).

BMMs [3] = experiment: Phagocytosis assay, FITC-zymosan uptake; type: cell-based, C57BL/6 mice; conditions: pretreated 1 hour
Description: After the incubations, cells were washed three times with PBS, and the quantities of internalized fluorescent particles were determined by flow cytometry. FITC-zymosan uptake was quantified as mean fluorescence intensity (MFI).
Supplementary Figure S3. (A) Ewha-18278 compounds can not directly scavenge superoxide or other reactive species in vitro. ROS (H2O2) measured with lucigenin. Reaction mixtures contained 1 […]
Luminescence measured over 30 min at 37
°C with luminometor (Gloma X luminometor, Turner BioSystem). […]
the phagocytosis of zymosan. […]
incubated with FITC-zymosan particles, and internalized fluorescence was measured by flow cytometry. The data are presented as the MFI of internalized FITC. Data represent mean ± S.D. […]

BMMs [4] = experiment: RANKL-induced intracellular ROS generation (DCF fluorescence); type: cell-based, C57BL/6 mice
Text: RANKL-induced ROS generation was monitored by confocal microscopic analysis of DCF fluorescence. Data represent three repeated experiments and are shown as mean ± SD (n = 3). […] (D) TRAP^+ MNCs containing more than 3 nuclei were counted. Data represent mean ± S.D., *P < 0.005. Scale bar, 500 μm.
DCF-DA is oxidized by ROS to the highly fluorescent DCF. After washed with HBSS, the cells were then examined with a laser scanning confocal microscope (LSM510; Zeiss) equipped with an argon laser tuned to an excitation wavelength of 488 nm, an LP505 emission filter (515–540 nm), and a Zeiss Axiovert objective lens. Images were digitized and stored at a resolution of 512 by 512 pixels. Five groups of cells were randomly selected from each sample, and the mean relative fluorescence intensity for each group of cells was measured with a Zeiss vision system and then averaged for all groups. All experiments were repeated at least three times.

Mature OCs = experiment: TUNEL assay, apoptosis of OCs; type: cell-based; conditions: 10 μM, absence or presence of RANKL
Description: Apoptotic cells were detected by the […] nick end labeling (TUNEL) assay In Situ Cell Death Detection Kit (Roche Applied Science, Basel, Switzerland) according to the manufacturer’s instructions. […] The percentage of positively stained cells was determined by counting the numbers of TUNEL labeled and DAPI stained cells. The experiments were repeated 3 times, and the mean values were calculated.
Supplementary Figure S5. […] Mature OCs were
generated with M-CSF and RANKL. Cells were washed with PBS and then treated with Ewha-18278
(10 μM) or DMSO with or without RANKL for 20 hours. Cells were subjected into TUNEL assay. Data […]

[5] = tested on: OVX-induced osteoporotic ddY mice; experiment: Tibia weights (wet, dry, ash) in OVX mice; type: in vivo
Description: The right sides of femur and tibia were weighed and then dried at 120 °C for 8 hours. The dried bones were carbonized at 800 °C for 6 hours in a furnace (Daihan Scientific, Korea) to detect ash absolute weights, after measurement of BMD and failure load. To reduce the individual body weight differences, the relative weight (%) was calculated using body weight at sacrifice and absolute weight as [Relative bone weights = (Absolute bone weight/Body weight at sacrifice) ×100]. In addition, ashed bones were ground and dissolved in nitric acid. In diluted solution, Ca and P contents were calculated (mg/g bone) using an orthocresolphthalein complex and enzyme methods, respectively. The Ca/P ratio (%) was calculated as (Tibia Ca contents/Tibia P contents) ×100.
Supplementary Table S4. Tibia Weights in OVX Mice Values are expressed mean ± S.D. of eight mice Risedronate sodium was administered at 2.5mg/kg levels a p<0.01 as compared with sham control […]
material OVX = ovariectomy
Groups Tibia absolute weights (g) Tibia relative weights (% of body weight)Wet Dry Ash Wet Dry Ash

BMMs [6] = experiment: RANKL-induced signaling, immunoblot of phospho-ERK, p38, JNK, IκBα; type: cell-based, C57BL/6 mice; conditions: BMMs pretreated 1 hour
Text: Data represent mean ± SD. […] Actin serves as a loading control.

[7] = 2.5 mg/kg oral once daily 28 days
[8] = 5 mg/kg oral once daily 28 days
[9] = 10 mg/kg oral once daily 28 days
[10] = 20 mg/kg oral once daily 28 days

Sequence of xanthine oxidase (P80457 2-1332): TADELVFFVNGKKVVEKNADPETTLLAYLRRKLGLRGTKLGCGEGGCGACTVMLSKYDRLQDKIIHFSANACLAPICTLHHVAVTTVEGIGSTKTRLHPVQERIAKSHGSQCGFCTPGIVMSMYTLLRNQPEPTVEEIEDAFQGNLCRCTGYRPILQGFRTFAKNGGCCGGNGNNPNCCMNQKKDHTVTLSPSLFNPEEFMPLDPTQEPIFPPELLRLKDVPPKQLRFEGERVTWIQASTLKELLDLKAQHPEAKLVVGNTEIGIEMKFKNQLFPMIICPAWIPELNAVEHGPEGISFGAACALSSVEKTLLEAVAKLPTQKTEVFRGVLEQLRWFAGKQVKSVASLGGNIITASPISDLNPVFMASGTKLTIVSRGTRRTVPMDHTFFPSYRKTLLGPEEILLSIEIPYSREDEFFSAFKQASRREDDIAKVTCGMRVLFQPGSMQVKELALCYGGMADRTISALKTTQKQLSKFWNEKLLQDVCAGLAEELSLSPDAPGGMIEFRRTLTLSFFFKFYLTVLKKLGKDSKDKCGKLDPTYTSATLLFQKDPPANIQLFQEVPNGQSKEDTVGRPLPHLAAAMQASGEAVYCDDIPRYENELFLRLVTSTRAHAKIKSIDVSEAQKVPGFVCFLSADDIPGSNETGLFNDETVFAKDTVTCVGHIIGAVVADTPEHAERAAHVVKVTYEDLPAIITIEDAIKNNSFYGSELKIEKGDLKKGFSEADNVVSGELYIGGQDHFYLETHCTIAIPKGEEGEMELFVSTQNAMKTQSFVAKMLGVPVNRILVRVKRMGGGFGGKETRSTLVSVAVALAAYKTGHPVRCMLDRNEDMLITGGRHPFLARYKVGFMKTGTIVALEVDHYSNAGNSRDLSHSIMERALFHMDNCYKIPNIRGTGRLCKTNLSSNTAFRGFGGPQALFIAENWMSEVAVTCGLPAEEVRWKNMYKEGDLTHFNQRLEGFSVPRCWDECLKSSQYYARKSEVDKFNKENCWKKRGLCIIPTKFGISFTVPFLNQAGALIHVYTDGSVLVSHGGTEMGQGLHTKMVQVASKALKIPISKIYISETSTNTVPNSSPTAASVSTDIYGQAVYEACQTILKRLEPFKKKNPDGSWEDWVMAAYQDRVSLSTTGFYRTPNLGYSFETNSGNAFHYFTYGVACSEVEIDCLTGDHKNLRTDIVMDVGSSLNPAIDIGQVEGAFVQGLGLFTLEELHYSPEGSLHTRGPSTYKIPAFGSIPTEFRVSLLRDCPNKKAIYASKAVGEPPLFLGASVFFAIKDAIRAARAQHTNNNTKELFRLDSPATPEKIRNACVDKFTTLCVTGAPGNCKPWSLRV

## CCCc1c(-c2ccccc2)nn(-c2ccccn2)c1O [Ewha-18278, 3-phenyl-1-(pyridin-2-yl)-4-propyl-1H-5-hydroxypyrazole HCl]
[1]
  bone strength (FL) of femur and tibia compared to control OVX: enhanced
[2]; IV 2 mg/kg
  Clt: 250 ± 72.3 mL/h
[2]; compared to Ewha-89403
  oral availability: high oral availability
[2]; rat, in vivo, IV 2 mg/kg
  AUC(0-inf): 2150 ± 693 ng·h/mL
  AUC(0-t): 1770 ± 697 ng·h/mL
  C0: 7480 ± 3420 ng/mL
  Vd: 1.52 ± 1.17 L
  half-life: 4.07 ± 2.28 h
[2]; rat, in vivo, IV 2 mg/kg and oral 20 mg/kg, read-out: Absolute Bioavailability (BA)
  bioavailability: 63.8%
[2]; rat, in vivo, oral 20 mg/kg
  AUC(0-inf): 14400 ± 8170 ng·h/mL
  AUC(0-t): 11300 ± 6470 ng·h/mL
  Cmax: 5010 ± 2510 ng/mL
  Tmax: 0.233 ± 0.171 h
  half-life: 14.4 ± 3.73 h
Xanthine oxidase
  inhibitory activity on xanthine oxidase: no inhibitory activities
BMMs [3]
  phagocytosis of FITC-zymosan (MFI) vs DMSO: n.s.
BMMs [4]; RANKL 200 ng/ml 10 minutes
  RANKL-mediated ROS generation: reduced RANKL-mediated ROS generation in dose- and time-dependent manners
BMMs [4]; after 60 min
  concentration at plateau of inhibition of RANKL-dependent ROS generation: 10 µM
Mature OCs
  apoptosis of OCs: had no effect on apoptosis
[5]; [7]
  Tibia absolute weights, Ash: 0.027 g
  Tibia absolute weights, Dry: 0.051 g
  Tibia absolute weights, Wet: 0.070 g
[5]; [8]
  Tibia absolute weights, Ash: 0.030 g
  Tibia absolute weights, Dry: 0.051 g
  Tibia absolute weights, Wet: 0.071 g
[5]; [9]
  Tibia absolute weights, Ash: 0.030 g
  Tibia absolute weights, Dry: 0.052 g
  Tibia absolute weights, Wet: 0.071 g
[5]; [10]
  Tibia absolute weights, Ash: 0.032 g
  Tibia absolute weights, Dry: 0.052 g
  Tibia absolute weights, Wet: 0.071 g
BMMs [6]
  activation of MAPKs (JNK, p38, ERK) and phosphorylation of IκBα: suppressed activation
